Measured values from article PMC8092228 (mBio, 2021).

Experiments:
[1] = biological target: T1, LOV-PAS-HK (full-length LOV-HK) (Brucella abortus, UniProt Q2YKK7)
T1 construct: gene BAB2_0652

[2] = biological target: T2, LOV-PAS (Brucella abortus, UniProt Q2YKK7)
T2 construct: gene BAB2_0652
T2 sequence (Q2YKK7 15-273 limits assumed): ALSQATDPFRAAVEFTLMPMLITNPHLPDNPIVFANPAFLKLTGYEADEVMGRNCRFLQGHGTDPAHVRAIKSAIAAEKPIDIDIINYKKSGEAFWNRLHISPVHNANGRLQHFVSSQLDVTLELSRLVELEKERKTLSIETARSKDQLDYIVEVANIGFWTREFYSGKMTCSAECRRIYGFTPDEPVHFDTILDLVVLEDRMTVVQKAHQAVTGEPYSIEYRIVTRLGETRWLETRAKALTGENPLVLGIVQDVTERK

T1 sequence (Q2YKK7 15-489 limits assumed): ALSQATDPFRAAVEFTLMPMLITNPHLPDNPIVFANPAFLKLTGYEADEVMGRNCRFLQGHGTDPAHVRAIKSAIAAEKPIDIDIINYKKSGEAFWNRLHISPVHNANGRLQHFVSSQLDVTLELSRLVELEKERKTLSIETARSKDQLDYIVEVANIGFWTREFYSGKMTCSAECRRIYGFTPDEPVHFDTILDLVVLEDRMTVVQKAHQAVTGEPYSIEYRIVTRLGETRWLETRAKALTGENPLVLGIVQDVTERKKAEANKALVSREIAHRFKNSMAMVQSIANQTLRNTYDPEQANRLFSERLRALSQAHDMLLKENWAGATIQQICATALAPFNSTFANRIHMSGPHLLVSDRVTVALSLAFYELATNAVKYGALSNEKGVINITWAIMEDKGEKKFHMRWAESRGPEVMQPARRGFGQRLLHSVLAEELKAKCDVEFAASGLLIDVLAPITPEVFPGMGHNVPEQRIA

SMILES: Cc1cc2nc3c(=O)[nH]c(=O)nc-3n(C[C@H](O)[C@H](O)[C@H](O)COP(=O)(O)O)c2cc1C [FMN]
- X-ray crystal structure 3.25 A [1]: the electron densities associated with the FMN chromophores are fused into the protein moiety
- X-ray crystal structure, 2.74 A (dark), 2.80 A (light) [2]: the FMN ligand is clearly separated from the protein moiety in the electron density map
